From patent US20240217947A1, “Morpholinylquinazoline Compound, Pharmaceutical compositions thereof and Use Thereof” (SHANGHAI YINGLI PHARMACEUTICAL CO., LTD, priority 2022, published 2024) come the findings set out here.

What is called IC50 is the point on the concentration scale where inhibition reaches its midpoint.

What all share (type): biochemical
One assay deals with PI3Kβ (Homo sapiens, UniProt P42338). Put plainly: PI3Kβ enzyme activity inhibition IC50 evaluation assay (ADP-Glo Kinase Assay). As to conditions: ATP 25 μM, PIP2 50 μg/mL, 1 hour room temperature, read-out: PI3K-β IC50. The method, then: (§1) Effec Example 1 IC50 evaluation assay for PI3Kα, PI3Kδ, PI3Kβ and PI3Kγ enzyme activity inhibition
(§2) The experiment was performed using the ADP-Glo Kinase Assay kit, following the instructions. The following buffer solutions were prepared: 50 mM HEPES, pH 7.5, 3 mM MgCl2, 1 mM EGTA, 100 mM NaCl, 0.03% CHAPS, 2 mM DTT. The test compound samples were dissolved in DMSO and added to the screening system at a certain starting concentration such as 10 μM, 3-fold dilution, while setting up both DMSO control and no kinase control. The optimal concentrations of PI3Kα, PI3Kδ, PI3Kβ and PI3Kγ enzymes, substrate (PIP2) and ATP were prepared in buffer. The enzyme reaction system included: buffer, ATP 25 μM, kinase substrate (PIP2, 50 μg/mL), kinases [PI3Kα (0.15 μg/mL), PI3Kδ (1.2 μg/mL), PI3Kβ (0.3 μg/mL) and PI3Kγ (2.5 μg/mL)], etc. The reaction system was reacted at room temperature for 1 hour. The reaction was terminated by adding a termination reagent (ADP-Glo reagent, 5 μL), and the ADP content in the system was detected using a detection reagent (Kinase Detection Reagent, 10 μL). Signal data were collected using the Envision instrument. Calculate the percentage of (%) inhibition according to the following formula: % inhibition=(DMSO control signal value−sample signal value)/(DMSO control signal value−no-kinase control signal value). The IC50 value was obtained by fitting the curve using the formula Y=Bottom+(Top-Bottom)/(1+(IC50/X)^HillSlope).
(ADP-Glo first removes unused ATP, then detects ADP through luciferase.)

For a further assay, the target named is PI3Kγ (Homo sapiens, UniProt P48736). Put plainly: PI3Kγ enzyme activity inhibition IC50 evaluation assay (ADP-Glo Kinase Assay). As to conditions: ATP 25 μM, PIP2 50 μg/mL, 1 hour room temperature, read-out: PI3K-γ IC50. The method, then:
as §1, §2

Another assay deals with HDAC1 (Homo sapiens, UniProt Q13547). Put plainly: HDAC1 enzyme activity inhibition IC50 evaluation experiment. As to conditions: HDAC1 10 nM, acetylated peptide 8 μM, trypsin, fluorescence. The method, then:
Effect Example 2 HDAC1, HDAC2, HDAC3, HDAC6 enzyme activity inhibition IC50 evaluation experiment
Buffer solution (50 mM Tris 7.5, 0.01% Tween-20, 50 mM NaCl) was prepared according to the kit instructions, and the enzyme solution and substrate solution (acetylated peptide with the addition of trypsin) were prepared using the buffer solution. The test compound samples were dissolved with DMSO and added to the screening system at a certain starting concentration such as 10 μM, 3-fold dilution, while setting up a DMSO control and no-enzyme control. The enzyme reaction system includes: buffer, enzyme [final concentration: HDAC1=10 nM, HDAC2=4 nM, HDAC3=7 nM, HDAC6=5 nM], substrate (acetylated peptide) [final concentration: Peptide(HDAC1)=8 μM, Peptide(HDAC2)=10 μM, Peptide(HDAC3)=5 μM, Peptide(HDAC6)=11 μM], trypsin [final concentration: Trypsin(HDAC1,2,3)=0.05 μM, Trypsin(HDAC6)=0.1 μM], etc. The enzymes and compounds were reacted at room temperature for 15 min. After adding the substrate and Trypsin, centrifugation was performed for 1 min, and the fluorescence signal data (excitation wavelength 355 nM/emission wavelength 460 nm) was read continuously for 60 min using Envision, and the linear reaction segment was selected to obtain the slope and thus calculate the inhibition rate at that concentration. The IC50 value was obtained by fitting the curve using the formula Y=Bottom+(Top-Bottom)/(1+(IC50/X)^HillSlope).

The target in another assay is T1, HDAC8 (Homo sapiens, UniProt Q9BY41).
T1 sequence (Q9BY41 1-377): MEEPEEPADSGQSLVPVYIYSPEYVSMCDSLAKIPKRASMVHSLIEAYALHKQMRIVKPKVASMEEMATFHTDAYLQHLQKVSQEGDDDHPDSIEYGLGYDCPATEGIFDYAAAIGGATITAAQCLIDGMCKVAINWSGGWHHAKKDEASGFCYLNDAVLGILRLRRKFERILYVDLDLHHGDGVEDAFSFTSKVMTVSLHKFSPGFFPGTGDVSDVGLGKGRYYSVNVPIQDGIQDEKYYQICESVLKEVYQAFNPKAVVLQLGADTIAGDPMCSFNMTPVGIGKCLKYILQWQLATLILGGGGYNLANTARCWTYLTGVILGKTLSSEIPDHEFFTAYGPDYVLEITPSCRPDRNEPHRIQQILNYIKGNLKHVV
Put plainly: HDAC8 enzyme activity inhibition IC50 evaluation experiment. As to conditions: HDAC8 10 nM, acetylated peptide 20 μM, 240 min, fluorescence. Here is the method: Effect Example 3 HDAC8, HDAC10 enzyme activity inhibition IC50 evaluation experiment
Prepare buffer solution (HDAC8: 50 mM Tris 8.0, 2.7 mM KCl, 137 mM NaCl, 1 mM MgCl2, 1 mg/mL BSA; HDAC10: 50 mM Tris 7.5, 0.01% Tween-20, 50 mM NaCl, 0.05 mg/mL BSA) according to the kit instructions, prepared Enzyme solution, substrate solution (acetylated peptide) by using buffer. The test compound samples were dissolved in DMSO and was added to the screening system at a certain starting concentration such as 10 μM, 3-fold dilution, while setting up the DMSO control and the no-enzyme control. The enzyme reaction system includes: buffer, enzyme [final concentration: HDAC8=10 nM, HDAC10=10 nM], substrate (acetylated peptide) [final concentration: Peptide(HDAC8)=20 μM, Peptide(HDAC10)=4 μM], etc. The enzymes and compounds were reacted at room temperature for 15 minutes. After adding the substrate peptide the reaction system was reacted at room temperature for 240 min. Trypsin solution was added [final concentration: Trypsin=50p M] and incubation continued for 120 min. The fluorescence signal data (excitation wavelength 355 nM/emission wavelength 460 nm) was read with Envision instrument. Calculate the inhibition rate at this concentration based on the relative fluorescence units (RFU). The IC50 value was obtained by fitting a curve using the formula Y=Bottom+(Top-Bottom)/(1+(IC50/X)^HillSlope).

Sequence of HDAC1 (Q13547 whole entry, species assumed): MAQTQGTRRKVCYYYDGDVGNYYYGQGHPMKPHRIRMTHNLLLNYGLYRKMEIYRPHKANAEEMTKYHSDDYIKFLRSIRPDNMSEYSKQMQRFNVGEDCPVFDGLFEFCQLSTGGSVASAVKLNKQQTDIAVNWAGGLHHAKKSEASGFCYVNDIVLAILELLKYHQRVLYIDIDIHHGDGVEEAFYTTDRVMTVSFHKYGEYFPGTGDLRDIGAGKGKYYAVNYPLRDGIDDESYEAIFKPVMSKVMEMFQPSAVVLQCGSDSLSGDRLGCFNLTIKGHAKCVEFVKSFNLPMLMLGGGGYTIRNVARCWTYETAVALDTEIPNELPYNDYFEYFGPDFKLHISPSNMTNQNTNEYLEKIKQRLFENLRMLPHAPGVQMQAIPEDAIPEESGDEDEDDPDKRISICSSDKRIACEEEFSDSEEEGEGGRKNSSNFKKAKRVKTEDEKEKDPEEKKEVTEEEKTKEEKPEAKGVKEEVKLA
Sequence of PI3Kγ (P48736 whole entry, species assumed): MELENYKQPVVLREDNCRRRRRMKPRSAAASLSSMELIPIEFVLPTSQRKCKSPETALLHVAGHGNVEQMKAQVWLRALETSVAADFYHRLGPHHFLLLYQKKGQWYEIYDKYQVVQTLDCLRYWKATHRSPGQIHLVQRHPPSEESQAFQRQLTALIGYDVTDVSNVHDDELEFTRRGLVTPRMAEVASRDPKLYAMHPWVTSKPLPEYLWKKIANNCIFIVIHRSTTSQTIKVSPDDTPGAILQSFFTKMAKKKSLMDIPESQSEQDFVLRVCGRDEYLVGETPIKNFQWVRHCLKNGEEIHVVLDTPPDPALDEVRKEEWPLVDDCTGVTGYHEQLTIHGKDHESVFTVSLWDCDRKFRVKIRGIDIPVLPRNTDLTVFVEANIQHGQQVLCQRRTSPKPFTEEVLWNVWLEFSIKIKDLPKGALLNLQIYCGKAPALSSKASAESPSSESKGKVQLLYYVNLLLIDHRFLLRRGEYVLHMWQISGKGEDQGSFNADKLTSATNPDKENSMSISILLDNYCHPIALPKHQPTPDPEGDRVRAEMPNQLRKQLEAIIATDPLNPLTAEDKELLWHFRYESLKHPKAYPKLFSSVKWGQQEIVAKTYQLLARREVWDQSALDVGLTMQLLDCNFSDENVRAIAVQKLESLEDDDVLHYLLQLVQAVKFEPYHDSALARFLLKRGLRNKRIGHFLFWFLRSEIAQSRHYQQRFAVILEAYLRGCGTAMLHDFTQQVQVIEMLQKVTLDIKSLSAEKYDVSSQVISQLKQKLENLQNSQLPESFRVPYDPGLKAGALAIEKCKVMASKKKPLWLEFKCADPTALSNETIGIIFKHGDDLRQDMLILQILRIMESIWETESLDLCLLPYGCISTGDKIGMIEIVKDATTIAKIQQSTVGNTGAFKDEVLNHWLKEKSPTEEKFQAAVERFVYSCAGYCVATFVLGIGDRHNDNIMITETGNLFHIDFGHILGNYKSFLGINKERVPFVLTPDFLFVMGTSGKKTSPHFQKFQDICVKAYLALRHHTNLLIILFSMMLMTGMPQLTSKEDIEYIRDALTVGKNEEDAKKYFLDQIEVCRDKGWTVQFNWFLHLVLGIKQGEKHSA
Sequence of PI3Kβ (P42338 whole entry, species assumed): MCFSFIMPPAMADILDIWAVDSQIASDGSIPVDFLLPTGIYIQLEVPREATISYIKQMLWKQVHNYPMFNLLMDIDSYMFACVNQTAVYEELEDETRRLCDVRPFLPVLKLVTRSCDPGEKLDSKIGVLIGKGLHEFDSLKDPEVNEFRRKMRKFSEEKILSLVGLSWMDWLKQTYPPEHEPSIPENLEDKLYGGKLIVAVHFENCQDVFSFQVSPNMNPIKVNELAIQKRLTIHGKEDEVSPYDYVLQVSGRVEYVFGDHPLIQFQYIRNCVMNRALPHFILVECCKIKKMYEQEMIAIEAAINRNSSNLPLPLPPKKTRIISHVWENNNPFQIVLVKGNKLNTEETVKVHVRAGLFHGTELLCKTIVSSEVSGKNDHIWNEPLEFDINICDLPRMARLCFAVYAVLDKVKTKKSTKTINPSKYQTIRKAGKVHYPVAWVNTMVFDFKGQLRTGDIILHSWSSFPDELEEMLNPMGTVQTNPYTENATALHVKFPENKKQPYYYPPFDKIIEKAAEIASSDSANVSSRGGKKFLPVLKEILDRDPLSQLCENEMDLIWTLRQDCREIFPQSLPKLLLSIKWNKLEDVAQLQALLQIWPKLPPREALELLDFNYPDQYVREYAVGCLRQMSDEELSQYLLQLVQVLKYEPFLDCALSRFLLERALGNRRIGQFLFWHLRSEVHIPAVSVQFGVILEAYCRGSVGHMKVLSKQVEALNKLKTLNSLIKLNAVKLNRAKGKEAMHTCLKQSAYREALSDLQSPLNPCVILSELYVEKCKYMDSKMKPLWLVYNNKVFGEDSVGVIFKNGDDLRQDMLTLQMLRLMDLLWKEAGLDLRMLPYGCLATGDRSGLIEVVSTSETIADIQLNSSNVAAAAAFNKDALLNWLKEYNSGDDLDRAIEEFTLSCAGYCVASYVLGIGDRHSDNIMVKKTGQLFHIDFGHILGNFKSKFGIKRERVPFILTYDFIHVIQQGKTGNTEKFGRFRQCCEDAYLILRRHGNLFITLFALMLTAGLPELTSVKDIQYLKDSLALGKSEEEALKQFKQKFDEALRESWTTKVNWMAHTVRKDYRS
Sequence of PI3Kβ (P27986 whole entry partner, species assumed): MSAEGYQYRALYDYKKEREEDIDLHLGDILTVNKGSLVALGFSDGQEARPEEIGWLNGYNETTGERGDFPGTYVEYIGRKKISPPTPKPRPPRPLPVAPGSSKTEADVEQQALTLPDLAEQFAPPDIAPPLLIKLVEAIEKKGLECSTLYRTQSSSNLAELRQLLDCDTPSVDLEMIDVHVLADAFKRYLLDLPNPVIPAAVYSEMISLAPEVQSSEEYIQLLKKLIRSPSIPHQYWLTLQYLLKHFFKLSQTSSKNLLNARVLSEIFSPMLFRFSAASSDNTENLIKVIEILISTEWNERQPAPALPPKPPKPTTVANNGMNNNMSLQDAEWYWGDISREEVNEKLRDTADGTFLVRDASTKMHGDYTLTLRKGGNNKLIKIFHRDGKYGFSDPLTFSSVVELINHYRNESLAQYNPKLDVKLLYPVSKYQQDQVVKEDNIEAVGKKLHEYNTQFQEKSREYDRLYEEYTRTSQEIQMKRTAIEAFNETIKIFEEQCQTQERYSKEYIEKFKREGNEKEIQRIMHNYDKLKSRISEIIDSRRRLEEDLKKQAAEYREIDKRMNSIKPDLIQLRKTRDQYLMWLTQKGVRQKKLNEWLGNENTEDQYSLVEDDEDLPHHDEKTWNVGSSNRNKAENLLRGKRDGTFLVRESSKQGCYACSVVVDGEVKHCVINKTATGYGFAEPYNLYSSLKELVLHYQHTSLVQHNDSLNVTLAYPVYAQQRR

Take `COc1ncc(-c2nc(N3CCOCC3)nc3c(CN4CCN(c5ncc(C(=O)NO)cn5)CC4)cc(F)cc23)cc1NS(C)(=O)=O` [Compound 7]: the results for the IC50 at PI3Kβ, at PI3Kγ and against HDAC1 were 0.1 to 1 µM, 1 to 10 µM and 0.01 to 0.1 µM, respectively.
`COc1ncc(-c2nc(N3CCOCC3)nc3c(OCCCCCCC(=O)NO)cc(F)cc23)cc1NS(C)(=O)=O` [Compound 9] came in with a half-maximal inhibitory concentration (IC50) against HDAC1 of at most 0.01 µM.
For the molecule `COc1ncc(-c2nc(N3CCOCC3)nc3c(OC4CCN(c5ncc(C(=O)NO)cc5F)CC4)cc(F)cc23)cc1NS(C)(=O)=O` [Compound 30], the IC50 on PI3Kβ was in the range of 1 to 10 µM; on PI3Kγ it was 1 to 10 µM; against HDAC1, 0.1 to 1 µM; on HDAC8 it was 0.1 to 1 µM.
As for `COc1ncc(-c2nc(N3CCOCC3)nc3c(OC4CCN(c5ncc(C(=O)NO)cn5)CC4)cc(F)cc23)cc1NS(C)(=O)=O` [Compound 39], the IC50 on HDAC1 is at most 0.01 µM; against HDAC8, 0.1 to 1 µM.
For `COc1ncc(-c2nc(N3CCOCC3)nc3c(OC4CCN(c5ccc(C(=O)NO)cn5)CC4)cc(F)cc23)cc1NS(C)(=O)=O` [Compound 40], in that order: 0.01 to 0.1 µM and 1 to 10 µM.
